Tests used:
Format in all cases: cell-based
THP1-dual cells = experiment: Luciferase assay based on THP1-dual cells; conditions: final concentration of compound 10 μL (so in the source), 24 h at 37° C.
Description: (§1) THP1-dual™ (Invivogen: thpd-nfis) cells or RAW-Lucia™ (Invivogen: rawl-isg) cells were diluted using a culture medium, and 180 μL of cell suspension was sucked and inoculated in a 96-well plate, such that each well contain 1×10^5 cells. 20 μL of a compound to be tested was added into the 96-well plate (the final concentration of said compound was […], and the final volume of each well was […]) and cultured at 37° C. for 24 h. 10 μL of supernatant was sucked into a new 96-well white plate, and 50 μL of a QUANT-Luc reagent was added. After full and even mixing, a microplate reader was used immediately for determination. There were three repeated wells set in the assay. The test result was represented as agitation fold and calculated by (test well−blank well)/(negative well−blank well). The test result was in the following tablet, with 2′,3′-cGAMP as a positive control, where *** represented an agitation fold of 20 or more, ** represented an agitation fold of 10 to 20, and * represented an agitation fold of 1 to 10.

RAW-Lucia cells = experiment: Luciferase assay based on RAW-Lucia cells; conditions: 24 h at 37° C.
Description: as §1

THP1 cells = experiment: Interferon β induction assay based on THP1 cells (ELISA); conditions: Homo sapiens, THP-1, compound 20 μM, 3.5 h, read-out: Secretion of IFNβ in THP1 cells, effect relative to 2′,3′-cGAMP at 20 μM (%)
Description: Secreted cytokine IFNβ was determined by ELISA. THP1 cells were inoculated in a 96-well plate (there was no serum contained in an RPMI 1640 medium), such that the number of cells in each well ranged from 5×10^5 to 7×10^5. A DMSO stock solution of 10 mM was prepared from a compound to be tested, diluted with a culture medium to a target concentration to be added into the 96-well plate containing cells (the final concentration of said compound was 20 μM, and the final volume of each well was 200 μL), and cultured at 37° C. in 5% CO2 for 3.5 h. The cells were collected at 4° C. and centrifuged at 1,000 rpm for 20 mins, and supernate was collected for ELISA determination. There were three repeated wells set in the assay. The result was shown in the following tablet, with 2′,3′-cGAMP as a positive control, where the test result was represented as a percentage of activity relative to 2′,3′-cGAMP at a concentration of 20 μM.

SMILES	Agitation activity in luciferase assay, THP1-dual (agitation fold) (THP1-dual cells)	Agitation activity in luciferase assay, RAW-Lucia (agitation fold) (RAW-Lucia cells)	Emax at 20 µM (THP1 cells) [%]
COc1cc2cc(C(=O)C[C@@H](C)C(=O)O)[se]c2cc1OC [I-3, R-4-(5,6-dimethoxybenzo[b]selenophene-2-yl)-2-methyl-4-oxo-butanoic acid]	*** (*** represented an agitation fold of 20 or more)	*** (*** represented an agitation fold of 20 or more)	234
COc1cc2cc(C(=O)C[C@H](C)C(=O)O)[se]c2cc1OC [I-4, S-4-(5,6-dimethoxybenzo[b]selenophene-2-yl)-2-methyl-4-oxo-butanoic acid]	*** (*** represented an agitation fold of 20 or more)	*** (*** represented an agitation fold of 20 or more)	201
COc1ccc2[se]c(C(=O)CC(C)C(=O)O)cc2c1 (stereo not drawn) [I-5]	* (* represented an agitation fold of 1 to 10)	* (* represented an agitation fold of 1 to 10)	59
COc1ccc2cc(C(=O)CC(C)C(=O)O)[se]c2c1 (stereo not drawn) [I-6, 4-(6-dimethoxybenzo[b]selenophene-2-yl)-2-methyl-4-oxo-butanoic acid]	* (* represented an agitation fold of 1 to 10)	* (* represented an agitation fold of 1 to 10)	15
COc1cc2[se]c(C(=O)CC(C)C(=O)O)cc2cc1O (stereo not drawn) [I-7, 4-(5-hydroxyl-6-dimethoxybenzo[b]selenophene-2-yl)-2-methyl-4-oxo-butanoic acid]	** (** represented an agitation fold of 10 to 20)	* (* represented an agitation fold of 1 to 10)	75
CC(CC(=O)c1cc2cc3c(cc2[se]1)OCO3)C(=O)O (stereo not drawn) [I-8, 2-methyl-4-oxo-4-(selenophene[2′,3′:4,5]benzo[1,2-d][1,3]dioxo-6-yl)butanoic acid]	* (* represented an agitation fold of 1 to 10)	* (* represented an agitation fold of 1 to 10)	20
CCOc1cc2cc(C(=O)CC(C)C(=O)O)[se]c2cc1OC (stereo not drawn) [I-9, 4-(5-ethoxy-6-dimethoxybenzo[b]selenophene-2-yl)-2-methyl-4-oxo-butanoic acid]	** (** represented an agitation fold of 10 to 20)	** (** represented an agitation fold of 10 to 20)	96
COc1cc2[se]c(C(=O)CC(C)C(=O)O)cc2cc1OC(C)C (stereo not drawn) [I-10, 4-(5-isopropoxy-6-dimethoxybenzo[b]selenophene-2-yl)-2-methyl-4-oxo-butanoic acid]	** (** represented an agitation fold of 10 to 20)	** (** represented an agitation fold of 10 to 20)	91
CCOC(=O)C(C)CC(=O)c1cc2cc(OC)c(OC)cc2[se]1 (stereo not drawn) [I-11, 4-(5,6-dimethoxybenzo[b]selenophene-2-yl)-2-methyl-4-oxo-ethyl butyrate]	* (* represented an agitation fold of 1 to 10)	** (** represented an agitation fold of 10 to 20)	9

Reference: patent US12606538B2, “Benzo[b]selenophene sting regulator, preparation method and use thereof” (CHINA PHARMACEUTICAL UNIVERSITY, priority 2021, dated 2026)
